# Several values for one entry are separate records, joined by “and”; a condition that tells them apart may be missing. Equal entries are not always repeated.
# Test system: 67 genes on the fibrosis gene panel
# Assay: Multiplexed fibrosis gene panel (QuantiGene 2.0 Plex / Bioplex) on liver RNA
# [1] = Carbon Tetrachloride 200 mg/kg, animal 54
# [2] = liver RNA, individual animals, Carbon Tetrachloride 200, Bromobenzene 785, Dexamethasone 1 mg/kg
smiles,measurement,setting,value
ClC(Cl)(Cl)Cl [carbon tetrachloride],A2m differential expression,[1],−3.423
same,Arf6 differential expression,[1],0.270
same,Cxcl1 differential expression,[1],0.190
same,RT1-DMa differential expression,[1],0.225
same,Differential Expression of A2m,[2],−2.891 and −2.439 and −5.167
same,Differential Expression of Angptl3,[2],−0.612 and −1.071 and −0.753 and −0.775
same,Differential Expression of Anxa2,[2],0.553 and 0.586 and 0.834 and 0.587
same,Differential Expression of Apoc,[2],−0.311 and −0.356 and −0.337 and −0.414
same,Differential Expression of Arf6,[2],0.172 and 0.167 and 0.214
same,Differential Expression of Arpc1b,[2],1.102 and 1.145 and 1.554 and 1.382
same,Differential Expression of Arrb1,[2],1.846 and 2.288 and 2.226 and 1.692
same,Differential Expression of C1qb,[2],0.268 and 0.290 and 0.085 and 0.332
same,Differential Expression of CD9,[2],−0.279 and −0.103 and 0.754 and −0.347
same,Differential Expression of CD53,[2],0.486 and 1.094 and 1.315 and 1.262
same,Differential Expression of CP,[2],−0.227 and −0.328 and −0.317 and −0.414
same,Differential Expression of Capg,[2],0.433 and 0.855 and 0.909 and 0.968
same,Differential Expression of Ccl2,[2],1.671 and 1.662 and 2.378 and 1.370
same,Differential Expression of Col1a1,[2],1.336 and 1.411 and 1.309 and 1.774
same,Differential Expression of Col1a2,[2],0.249 and 0.458 and 0.329 and 0.672
same,Differential Expression of Col4a1,[2],−0.521 and −0.024 and −0.441 and 0.104
same,Differential Expression of Col5a2,[2],1.411 and 2.330 and 2.442 and 2.138
same,Differential Expression of Ctgf,[2],2.135 and 2.232 and 2.664 and 1.663
same,Differential Expression of Cxcl1,[2],−0.500 and −0.165 and −0.462
same,Differential Expression of Cxcl12,[2],0.040 and 0.320 and 0.041 and 0.403
same,Differential Expression of Cxcl16,[2],1.440 and 1.782 and 1.992 and 1.656
same,Differential Expression of Cyba,[2],0.522 and 0.799 and 0.888 and 0.887
same,Differential Expression of Cyp2c11,[2],−1.357 and −3.301 and −0.339 and −0.904
same,Differential Expression of Dsc2,[2],0.091 and −0.280 and −0.204 and −0.265
same,Differential Expression of Fam102b,[2],−0.378 and −0.140 and −0.011 and −0.240
same,Differential Expression of Fam105a,[2],0.309 and 0.576 and 0.985 and 0.758
same,Differential Expression of Fbn1,[2],−0.149 and 0.230 and −0.294 and 0.107
same,Differential Expression of Fn1,[2],−0.120 and −0.152 and −0.364 and −0.262
same,Differential Expression of Fstl1,[2],−0.259 and 0.017 and −0.180 and 0.025
same,Differential Expression of Fxyd5,[2],0.160 and 0.404 and 0.507 and 0.213
same,Differential Expression of Gpnmb,[2],1.494 and 2.232 and 3.101 and 2.714
same,Differential Expression of Igfals,[2],−0.528 and −0.092 and −0.771 and −0.189
same,Differential Expression of Igfbp1,[2],0.019 and 0.070 and 0.480 and −0.925
same,Differential Expression of Igfbp2,[2],−0.542 and 1.416 and 0.505 and −1.839
same,Differential Expression of Igfbp3,[2],−0.324 and 0.063 and −0.304 and −0.113
same,Differential Expression of Itga1,[2],0.220 and 0.585 and 0.503 and 0.756
same,Differential Expression of Itgb2,[2],−0.115 and 0.502 and 0.455 and 0.302
same,Differential Expression of Lame2,[2],2.323 and 2.130 and 2.338 and 1.341
same,Differential Expression of Lbp,[2],0.594 and 0.379 and 0.665 and 0.050
same,Differential Expression of Len2,[2],−1.654 and 0.356 and 1.528 and 2.126
same,Differential Expression of Lgals1,[2],0.936 and 0.978 and 1.986 and 1.602
same,Differential Expression of Lgals3,[2],0.994 and 1.444 and 2.024 and 1.736
same,Differential Expression of Lgals3bp,[2],0.391 and 0.486 and 0.360 and 0.302
same,Differential Expression of Lox,[2],−0.215 and −0.493 and 0.022 and 0.077
same,Differential Expression of Lrp1,[2],−0.329 and −0.337 and −0.524 and −0.671
same,Differential Expression of Lum,[2],0.298 and −0.201 and 0.404 and 0.442
same,Differential Expression of Mmp2,[2],−0.062 and 0.311 and 0.610 and −0.241
same,Differential Expression of Nid1,[2],−0.021 and 0.232 and 0.186 and 0.154
same,Differential Expression of Pcolce,[2],0.002 and 0.354 and 0.651 and −0.401
same,Differential Expression of Pkm2,[2],0.077 and 0.586 and 0.642 and 0.663
same,Differential Expression of Plat,[2],−0.025 and −0.411 and −0.289 and −0.385
same,Differential Expression of Plau,[2],0.039 and 0.765 and 0.947 and 0.720
same,Differential Expression of Plod2,[2],−0.129 and −0.357 and −0.045 and −0.258
same,Differential Expression of RT1-DMa,[2],0.711 and 0.673 and 1.089
same,Differential Expression of RT1-Da,[2],0.559 and 0.918 and 1.213 and 1.280
same,Differential Expression of S100A6,[2],−0.079 and −0.686 and 0.408 and −0.019
same,Differential Expression of S100A11,[2],0.119 and 0.421 and 0.731 and 0.599
same,Differential Expression of Serpine1,[2],0.309 and −0.345 and 0.467 and −0.524
same,Differential Expression of Serping1,[2],−0.712 and −0.714 and −0.546 and −0.514
same,Differential Expression of Slc25a24,[2],−0.245 and −0.511 and −0.262 and −0.615
same,Differential Expression of Sod2,[2],0.022 and 0.009 and −0.014 and −0.116
same,Differential Expression of TagIn2,[2],0.218 and 0.282 and 0.110 and 0.153
same,Differential Expression of Tgfb1,[2],−0.322 and 0.107 and −0.102 and −0.395
same,Differential Expression of Timp1,[2],0.939 and 1.200 and 1.645 and 1.241
same,Differential Expression of Vhl,[2],2.369 and 2.626 and 2.628 and 2.130
same,Differential Expression of Vim,[2],0.044 and 0.004 and 0.348 and 0.360
same,Differential Expression of Vtn,[2],−0.291 and −0.381 and −0.494 and −0.473
same,Panel gene expression relative to other chemical-dose groups,"liver, 67-gene panel",mid-way between fibrosis-positive chemical-dose groups and non-fibrogenic chemical-dose groups
same,Hierarchical biclustering of log2 fold-changes in panel gene expression,"liver, 67 genes",clustered mid-way between non-fibrogenic and fibrogenic doses of the other fibrogenic chemicals

# — patent publication US11371097B2, “Articles for diagnosis of liver fibrosis” (THE GOVERNMENT OF THE UNITED STATES, as represented by THE …, priority 2015, dated 2022)
